Tests used:
Cochliobolus sativus = assay: Spot blotch of barley (COCHSA) fungicidal activity; format: in vivo; settings: 100 ppm, 1 Day Protectant
Experimental: Technical grades of materials were dissolved in acetone, which were then mixed with nine volumes of water containing 110 ppm Triton X-100. The fungicide solutions were applied onto wheat seedlings using an automated booth sprayer to run-off. All sprayed plants were allowed to air dry prior to further handling. Wheat plants (variety Yuma) were grown from seed in a greenhouse in 50% mineral soil/50% soil-less Metro mix until the first leaf was fully emerged, with 7-10 seedlings per pot. These plants were inoculated with an aqueous spore suspension of Septoria tritici either prior to or after fungicide treatments. After inoculation the plants were kept in 100% relative humidity (one day in a dark dew chamber followed by two to three days in a lighted dew chamber at 20° C.) to permit spores to germinate and infect the leaf. The plants were then transferred to a greenhouse set at 20° C. for disease to develop. When disease symptoms were fully expressed on the 1st leaves of untreated plants, infection levels were assessed on a scale of 0 to 100 percent disease severity. Percent disease control was calculated using the ratio of disease severity on treated plants relative to untreated plants. Evaluation of Fungicidal Activity: Spot Blotch of Barley (Cochliobolus Sativus; Bayer Code COCHSA) Barley seedlings (variety Harrington) were propagated in soil-less Metro mix, with each pot having 8 to 12 plants, and used for testing when first leaf was fully emerged. Test plants were inoculated with a spore suspension of Cochliobolus sativus 24 hr after fungicide treatments. After inoculation the plants were placed in a dark dew room with 100% RH and temperature of 22° C. for 48 hr. The plants were then kept in a greenhouse set at 24° C. until disease fully developed. Fungicide formulation, application and disease assessment followed the procedures as described in the Example A.

Phakopsora pachyrhizi = assay: Asian soybean rust (PHAKPA) fungicidal activity; format: in vivo; settings: 25 ppm; for Disease Control PHAKPA 1 DP: 1 Day Protectant; for Disease Control PHAKPA 2 DC: 2 Day Curative
Experimental: Evaluation of Fungicidal Activity: Asian Soybean Rust (Phakopsora Pachyrhizi; Bayer Code […]) Technical grades of materials were dissolved in acetone, which were then mixed with nine volumes of water containing 0.011% Tween 20. The fungicide solutions were applied onto soybean seedlings using an automated booth sprayer to run-off. All sprayed plants were allowed to air dry prior to further handling. Soybean plants (variety Williams 82) were grown in soil-less Metro mix, with one plant per pot. Two weeks old seedlings were used for testing. Plants were inoculated either 2 days prior to or 1 day after fungicide treatments. Plants were incubated for 24 h in a dark dew room at 22° C. and 100% RH then transferred to a growth room at 23° C. for disease to develop. Disease severity was assessed on the sprayed leaves.

Puccinia triticina = assay: Fungicide mobility (dropline mobility test), wheat brown rust (PUCCRT); format: in vivo; settings: 1 ug/leaf, disease-free zone as percent of distance from marked line to leaf tip; for Dropline Mobility Test PUCCRT 1 DPM: 1 Day Protectant Mobility; for Dropline Mobility Test PUCCRT 3 DCM: 3 Day Curative Mobility
Method in brief: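 Yuma wheat primary leaves, held horizontal, got a 2 μl drop of EC-formulated compound in water with 110 ppm Triton X-100 on a line 5 cm from the tip; 6 replicates. Inoculation 1 day after or 3 days before application. Acropetal disease-free zone measured as percent of line-to-tip distance once control rust fully expressed.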

Rhyncosporium secalis = assay: Barley scald (RHYNSE) fungicidal activity; format: in vivo; settings: 100 ppm, 1 Day Protectant
Experimental: Technical grades of materials were dissolved in acetone, which were then mixed with nine volumes of water containing 110 ppm Triton X-100. The fungicide solutions were applied onto wheat seedlings using an automated booth sprayer to run-off. All sprayed plants were allowed to air dry prior to further handling. Wheat plants (variety Yuma) were grown from seed in a greenhouse in 50% mineral soil/50% soil-less Metro mix until the first leaf was fully emerged, with 7-10 seedlings per pot. These plants were inoculated with an aqueous spore suspension of Septoria tritici either prior to or after fungicide treatments. After inoculation the plants were kept in 100% relative humidity (one day in a dark dew chamber followed by two to three days in a lighted dew chamber at 20° C.) to permit spores to germinate and infect the leaf. The plants were then transferred to a greenhouse set at 20° C. for disease to develop. When disease symptoms were fully expressed on the 1st leaves of untreated plants, infection levels were assessed on a scale of 0 to 100 percent disease severity. Percent disease control was calculated using the ratio of disease severity on treated plants relative to untreated plants. Evaluation of Fungicidal Activity: Barley Scald (Rhyncosporium Secalis; Bayer Code […]) Barley seedlings (variety Harrington) were propagated in soil-less Metro mix, with each pot having 8 to 12 plants, and used in the test when first leaf was fully emerged. Test plants were inoculated by an aqueous spore suspension of Rhyncosporium secalis 24 hr after fungicide treatments. After inoculation the plants were kept in dew room at 20° C. with 100% relative humidity for 48 hr. The plants were then transferred to a greenhouse set at 20° C. for disease to develop. Fungicide formulation, application and disease assessment on the sprayed leaves followed the procedures as described in the Example A.

| Compound | Disease Control COCHSA 1DP (Cochliobolus sativus) | melting point [°C] | Disease Control PHAKPA 1 DP (Phakopsora pachyrhizi) | Disease Control PHAKPA 2 DC (Phakopsora pachyrhizi) | Dropline Mobility Test PUCCRT 1 DPM (Puccinia triticina) | Dropline Mobility Test PUCCRT 3 DCM (Puccinia triticina) | Disease Control RHYNSE 1DP (Rhyncosporium secalis) |
| --- | --- | --- | --- | --- | --- | --- | --- |
| COc1ccnc(C(=O)N[C@H]2COC[C@H](Cc3ccccc3)[C@@H](OCC(C)C)[C@H](C)OC2=O)c1OCOC(=O)C(C)C [Compound 3] | A (80-100) | 54 to 58 | A (80-100) | A (80-100) | B (More than 0-Less than 80) | B (More than 0-Less than 80) |  |
| COc1ccnc(C(=O)N[C@H]2COC[C@H](Cc3ccccc3)[C@@H](OCC(C)C)[C@H](C)OC2=O)c1OC(C)=O [Compound 9, 2-(((3S,7S,8R,9S)-7-benzyl-8-isobutoxy-9-methyl-2-oxo-1,5-dioxonan-3-yl)carbamoyl)-4-methoxypyridin-3-yl acetate] | B (More than 0-Less than 80) |  | A (80-100) | A (80-100) | B (More than 0-Less than 80) | B (More than 0-Less than 80) |  |
| COc1ccnc(C(=O)N[C@H]2COC[C@H](Cc3ccccc3)[C@@H](OCC(C)C)[C@H](C)OC2=O)c1OCOC(C)=O [Compound 8, (2-((3S,7S,8R,9S)-7-benzyl-8-isobutoxy-9-methyl-2-oxo-1,5-dioxonan-3-ylcarbamoyl)-4-methoxypyridin-3-yloxy)methyl acetate] | B (More than 0-Less than 80) |  | A (80-100) | A (80-100) | B (More than 0-Less than 80) | B (More than 0-Less than 80) | A (80-100) |
| COc1ccnc(C(=O)N[C@H]2COC[C@H](Cc3ccccc3)[C@@H](OC3CCCC3)[C@H](C)OC2=O)c1OCOC(=O)C(C)C [Compound 108] |  |  | A (80-100) | A (80-100) |  |  | A (80-100) |
| COc1ccnc(C(=O)N[C@H]2COC[C@H](Cc3ccccc3)[C@@H](OCC(C)C)[C@H](C)OC2=O)c1O [Compound 2, N-((3S,7S,8R,9S)-7-benzyl-8-isobutoxy-9-methyl-2-oxo-1,5-dioxonan-3-yl)-3-hydroxy-4-methoxypicolinamide] |  | 126 to 128 | A (80-100) | A (80-100) | B (More than 0-Less than 80) | B (More than 0-Less than 80) |  |
| COc1ccnc(C(=O)N[C@H]2COC[C@H](Cc3ccccc3)[C@@H](OCC(C)C)[C@H](C)OC2=O)c1OCOC(=O)C(C)(C)C [Compound 7] | B (More than 0-Less than 80) |  | A (80-100) | A (80-100) | B (More than 0-Less than 80) | B (More than 0-Less than 80) |  |
| COc1ccnc(C(=O)N[C@H]2COC[C@H](Cc3ccccc3)[C@@H](OC3CCCC3)[C@H](C)OC2=O)c1OC(C)=O [Compound 107] |  |  |  |  |  |  | A (80-100) |
| COc1ccnc(C(=O)N[C@H]2COC[C@H](Cc3ccccc3)[C@@H](OCC(C)C)[C@H](C)OC2=O)c1OC(=O)OC(C)C [Compound 10, 2-(((3S,7S,8R,9S)-7-benzyl-8-isobutoxy-9-methyl-2-oxo-1,5-dioxonan-3-yl)carbamoyl)-4-methoxypyridin-3-yl isopropyl carbonate] | B (More than 0-Less than 80) |  | A (80-100) | A (80-100) | B (More than 0-Less than 80) | B (More than 0-Less than 80) |  |

Reference: patent publication US8835462B2, “Macrocyclic picolinamides as fungicides” (Dow AgroSciences LLC, priority 2012, dated 2014)
